Here are results for 23 molecules from patent EP2790511B1 (Merck Sharp & Dohme Corp., priority 2011, dated 2013).

Read-outs that look alike come from different tables or passages of the source.

For the assay, the target named is T1, hROMK (hKir1.1) (Homo sapiens, UniProt P48048).
T1 construct: expressed in transfected cells
T1 sequence (P48048 1-391): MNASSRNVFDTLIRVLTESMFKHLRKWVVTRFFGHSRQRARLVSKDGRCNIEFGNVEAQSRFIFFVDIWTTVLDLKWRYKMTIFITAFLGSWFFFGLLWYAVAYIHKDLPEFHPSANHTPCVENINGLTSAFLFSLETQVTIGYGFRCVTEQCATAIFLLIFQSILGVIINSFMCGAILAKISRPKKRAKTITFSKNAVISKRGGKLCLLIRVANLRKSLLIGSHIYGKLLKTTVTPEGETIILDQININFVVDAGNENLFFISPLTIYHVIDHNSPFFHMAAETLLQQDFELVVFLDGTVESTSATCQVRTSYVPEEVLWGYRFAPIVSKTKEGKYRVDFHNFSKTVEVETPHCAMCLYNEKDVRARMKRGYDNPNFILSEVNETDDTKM
Briefly: Thallium Flux Assay. The assay is classed as cell-based. How it is done: Cell Culture Conditions- HEK293 cells stably expressing hROMK (hKir1.1) were grown at 37°C in a 10%CO2 humidified incubator in complete growth media: Dulbecco's Modified Eagle Medium supplemented with non-essential amino acids, Penicillin/Streptomycin/Glutamine, G418 and FBS. At >80% confluency, aspirate the media from the flask and rinse with 10 mL Calcium/Magnesium-free PBS. […] To dislodge the cell, gently bang the side of the flask with your hand. Triturate the cells completely and then transfer the cells to 25 mL complete media. Centrifuge at 1,500 rpm for 6 min followed by resuspension in complete growth media and determine cell concentration. […] Under ideal growth conditions and appropriate tissue culture practices, this cell line is stable for 40-45 passages.
• FluxOR™ Reagent (Component A) • FluxOR™ Assay Buffer (Component B) - 10X Concentrate • PowerLoad™ Concentrate (Component C) - 100X Concentrate • Probenecid (Component D) - Lyophilized sample is kept at -20°C. Water soluble, 100X after solubilization in 1 mL water. […] Store at 4°C. • Thallium sulfate (Tl2SO4) Concentrate (Component G) - 50 mM in water. Store at 4°C • DMSO (dimethyl sulfoxide, Component H) - 1 mL (100%)
• 1000X FluxOR™ Reagent: Reconstitute a vial of component A in 100 µl DMSO; Mix well; Store 10 µl aliquots at -20°C • 1X FluxOR™ Assay Buffer: Dilute Component B 10-fold with water; Adjust pH to 7.4 with Hepes/NaOH; Filter and store at 4°C • Probenecid/Assay Buffer: 100 mL of 1X FluxOR™ Assay Buffer; 1 mL of reconstituted component D; Store at 4°C • Loading Buffer (per microplate): 10 µl 1000X FluxOR™ Reagent; 100 µl component C; 10 mL Probenecid/Assay Buffer • Compound Buffer (per microplate): 20 mL Probenecid/Assay Buffer; 0.3 mM ouabain (10 mM ouabain in water can be stored in amber bottle/aluminum foil at room temperature); Test compound • 1X FluxOR™Chloride-Free Buffer: Prepare 1X working solution in water. Can be stored at room temperature • Stimulant Buffer (prepared at 5X final concentration in 1X FluxOR™Chloride-Free Buffer): 7.5 mM Thallium sulfate and 0.75 mM Potassium sulfate (to give a final assay concentration of 3 mM Thallium/ 0.3 mM Potassium). Store at 4°C when not in use. If kept sterile, this solution is good for months.
Assay protocol- The ROMK channel functional thallium flux assay is performed in 384 wells, using the FLIPR-Tetra instrument. HEK-hKir1.1 cells are seeded in Poly-D-Lysine microplates and kept in a 37°C-10%CO2 incubator overnight. On the day of the experiment, the growth media is replaced with the FluxOR™ reagent loading buffer and incubated, protected from light, at ambient temperature (23-25°C) for 90 min. The loading buffer is replaced with assay buffer ± test compound followed by 30 min incubation at ambient temperature, where the Thallium/Potassium stimulant is added to the microplate.
• 1. Seed HEK-hKir1.1 cells (50 µl at 20,000 cells/well) in 384-well PDL coated Microplates • 2. Allow cells to adhere overnight in humidified 37°C/10%CO2 incubator • 3. Completely remove cell growth media from microplate and replace with 25 µl loading buffer • 4. Incubate Microplate at room temperature, protected form light, for 90 min • 5. Remove loading buffer and replace with 25 µl 1x Assay Buffer ± test compound. • 6. Incubate microplate at room temperature, protected form light, for 30 min • 7. […] Excitation = 400 nm, Emission = 460 & 580 nm. Collect data for ∼ 10 min.
Data Calculation- The fluorescence intensity of wells containing 3 µM of a standard control ROMK inhibitor of the present invention is used to define the ROMK-sensitive component of thallium flux. Fluorescence in the presence of test compounds is normalized to control values to provide % fluorescence change.

Setting [1] is: HEK293 cells stably expressing hROMK (hKir1.1), FLIPR-Tetra, read-out: Thallium Flux IC50.

Broadly, the IC50 is the concentration needed to halve the response being measured. For “2,6-difluoro-3-[3R,9aS)-8-{[2-methyl-6-(1H-tetrazol-1-vl)pvridin-3-yl]acetyl}octahydropyrazino[2,1-c][1,4]oxazin-3-yl]benzonitrile [Example 89]”, the IC50 (read-out: Thallium Flux IC50) was determined as 70 nM.

Take `Cc1c(C2CN3CCN(C(=O)Cc4ccc(-n5cnnn5)nc4)CC3CCO2)ccc2c1COC2=O` (single isomer, unassigned) [Example 163, 4-methyl-5-(2-{[6-(1H-tetrazol-1-yl)pyridin-3-yl]acetyl}octahydro-2H-pyrazino[1,2-d][1,4]oxazepin-7-yl)-2-benzofuran-1(3H)-one]: it took 210 nM to reach half-maximal inhibition (Thallium Flux IC50) (IC50).

In the case of `Cc1c(C2CN3CCN(C(=O)Cc4ccc(-n5cnnn5)nc4)CC3CCO2)ccc2c1COC2=O` (single isomer, unassigned) [Example 164, 4-methyl-5-(2-{(6-(1H-tetrazol-1-yl)pyridin-3-yl]acetyl}octahydro-2H-pyrazino[1,2-d][1,4]oxazepin-7-yl)-2-benzofuran-1(3H)-one], it took 650 nM to reach half-maximal inhibition (Thallium Flux IC50) (IC50).

With `Cc1c(C2CN3CCN(C(=O)Cc4cnc(-n5cnnn5)nc4)CC3CCO2)ccc2c1COC2=O` (single isomer, unassigned) [Example 165, 4-methyl-5-(2-{[2-(1H-tetrazol-1-yl)pyrimidin-5-yl]acetyl}octahydro-2H-pyrazino[1,2-d][1,4]oxazepin-7-yl)-2-benzofuran-1(3H)-one], the IC50 under setting [1] was found to be 210 nM.

With `Cc1c([C@H]2CN3CCN(C(=O)Cc4ccc(-n5cnnn5)nc4)C[C@H]3CCO2)ccc(F)c1C#N` (single isomer, unassigned) [Example 169], under setting [1], the IC50 stood at 180 nM.

`Cc1c([C@@H]2CN3CCN(C(=O)Cc4ccc(-n5cnnn5)nc4)C[C@@H]3CCO2)ccc(F)c1C#N` (single isomer, unassigned) [Example 170] had an IC50 (Thallium Flux IC50) of 240 nM.

For the molecule `Cc1c([C@@H]2CN3CCN(C(=O)Cc4ccc(-n5cnnn5)nc4)C[C@H]3CCO2)ccc(F)c1C#N` (single isomer, unassigned) [Example 171], the IC50 under setting [1] came out at 270 nM.

In the case of `Cc1c([C@H]2CN3CCN(C(=O)Cc4cnc(-n5cnnn5)nc4)C[C@H]3CCO2)ccc(F)c1C#N` (single isomer, unassigned) [Example 172], for the setting “Thallium Flux IC50”, the midpoint of inhibition, the IC50, lay at 220 nM.

For the molecule `O=C1OCCc2cc([C@@H]3CN4CCN(C(=O)Cc5ccc(-n6cnnn6)nc5)C[C@H]4CO3)ccc21` [Example 1], for the setting “read-out: Thallium Flux IC50”, the IC50 worked out at 80 nM.

`Cc1c([C@@H]2CN3CCN(C(=O)Cc4ccc(-n5cnnn5)nc4)C[C@H]3CO2)ccc(F)c1C#N` [Example 5, 6-fluoro-2-methyl-3-[(3R,9aS)-8-{[6-(1H-tetrazol-1-yl)pyridin-3-yl]acetyl}octahydropyrazino[2,1-c][1,4]oxazin-3-yl]benzonitrile] displayed an IC50 (Thallium Flux IC50) of 50 nM.

Molecule `Cc1c([C@H]2CN3CCN(C(=O)Cc4cnc(-n5cnnn5)nc4)C[C@@H]3CO2)ccc(F)c1C#N` [Example 9, 6-fluoro-2-methyl-3-[(3S,9aR)-8-{[2-(1H-tetrazol-1-yl)pyrimidin-5-yl]acetyl}octahydropyrazino[2,1-c][1,4]oxazin-3-yl]benzonitrile] had an IC50 (Thallium Flux IC50) of 180 nM.

For `N#Cc1c(F)ccc([C@H]2CN3CCN(C(=O)Cc4ccc(-n5cnnn5)nc4)C[C@H]3CO2)c1Cl` [Example 10, 2-chloro-6-fluoro-3-[(3S,9aS)-8-{[6-(1H-tetrazol-1-yl)pvridin-3-yl]acetyl}octahydropyrazino[2,1-c][1,4]oxazin-3-yl]benzonitrile], the IC50 under setting [1] is 70 nM.

For `N#Cc1c(F)ccc([C@@H]2CN3CCN(C(=O)Cc4ccc(-n5cnnn5)nc4)C[C@H]3CO2)c1F` [Example 11, 2,6-difluoro-3-[(3R,9aS)-8{[6-(1H-tetrazol-1-yl)pyridin-3-yl]acetyl}octahydropyrazino[2,1-c][1,4]oxazin-3-yl]benzonitrile], the IC50 (Thallium Flux IC50) was determined as 90 nM.

On to `N#Cc1c(F)ccc([C@H]2CN3CCN(C(=O)Cc4ccc(-n5cnnn5)nc4)C[C@H]3CO2)c1F` [Example 12, 2,6-difluoro-3-[(3S,9aS)-8-{[6-(1H-tetrazol-1-yl)pyridin-3-yl]acetyl}octahydropyrazino[2,1-c][1,4]oxazin-3-yl]benzonitrile], for which the IC50 under setting [1] is 120 nM.

`Cc1c([C@@H]2CN3CCN(C(=O)Cc4cnc(-n5cnnn5)nc4)C[C@H]3CO2)ccc(F)c1C#N` [Example 14] returned an IC50 (Thallium Flux IC50) of 80 nM.

For the molecule `Cc1c([C@H]2CN3CCN(C(=O)Cc4cnc(-n5cnnn5)nc4)C[C@H]3CO2)ccc2c1COC2=O` [Example 15, 4-methyl-5-[(3S,9aS)-8-{[2-(1H-tetrazol-1-yl)pyrimidin-5-yl]acetyl}octahydropyrazino[2,1-c][1,4]oxazin-3-yl]benzofuran-1(3H)-one], under setting [1], the IC50 was found to be 140 nM.

Take `Cc1c([C@@H]2CN3CCN(C(=O)Cc4cnc(-n5cnnn5)nc4)C[C@H]3CO2)ccc2c1COC2=O` [Example 16]: the IC50 under setting [1] was determined as 480 nM.

On to `Cc1c(C#N)cccc1[C@@H]1CN2CCN(C(=O)Cc3cnc(-n4cnnn4)nc3)C[C@H]2CO1` [Example 17, 2-methyl-3-[(3R,9aS)-8-{[2-(1H-tetrazol-1-yl)pyrimidin-5-yl]acetyl}octahydropyrazino[2,1-c][1,4]oxazin-3-yl]benzonitrile], for which the IC50 under setting [1] stood at 160 nM.

Regarding `Cc1c(C#N)cccc1[C@H]1CN2CCN(C(=O)Cc3cnc(-n4cnnn4)nc3)C[C@H]2CO1` [Example 18, 2-methyl-3-[(3S,9aS)-8-{[2-(1H-tetrazol-1-yl)pyrimidin-5-yl]acetyl}octahydropyrazino[2,1-c][1,4]oxazin-3-yl]benzonitrile], under setting [1], the IC50 turned out to be 320 nM.

In the case of `C[C@@H]1Cc2cc([C@@H]3CN4CCN(C(=O)Cc5cnc(-n6cnnn6)nc5)C[C@H]4CO3)ccc2C(=O)O1` [Example 19], under “Thallium Flux IC50”, it took 160 nM to reach half-maximal inhibition (IC50).

Regarding `C[C@H]1Cc2cc([C@@H]3CN4CCN(C(=O)Cc5cnc(-n6cnnn6)nc5)C[C@H]4CO3)ccc2C(=O)O1` [Example 20, (3S)-3-methyl-6-[(3R,9aS)-8-{[2-(1H-tetrazol-1-yl)pyrimidin-5-yl]acetyl}octahydropyrazino[2,1-c][1,4]oxazin-3-yl]-3,4-dihydro-1H-isochromen-1-one], for the setting “Thallium Flux IC50”, the IC50 amounted to 170 nM.

Consider `Cc1c([C@H]2CN3CCN(C(=O)Cc4ccc(-n5cnnn5)nc4)C[C@H]3CO2)ccc2c1COC2=O` [Example 21, 4-methyl-5-[(3S,9aS)-8-{[6-(1H-tetrazol-1-yl)pyridin-3-yl]acetyl}octahydropyrazino[2,1-c][1,4]oxazin-3-yl]-2-benzofuran-1(3H)-one], for which the IC50 (Thallium Flux IC50) came out at 100 nM.

`Cc1c([C@@H]2CN3CCN(C(=O)Cc4ccc(-n5cnnn5)nc4)C[C@H]3CO2)ccc2c1COC2=O` [Example 22, 4-methyl-5-[(3R,9a,S)-8-{[6-(1H-tetrazol-1-yl)pyridin-3-yl]acetyl}octahydropyrazino[2,1-c][1,4]oxazin-3-y]-2-benzofuran-1(3H)-one] had an IC50 (Thallium Flux IC50) of 160 nM.
